Structures are written as SMILES. Several values for one entry are separate records, joined by “and”; a condition that tells them apart may be missing. Identical values can stand only once.

One assay deals with MMP-2. The experiment in a line: IL-1β-induced MMP-2 expression (qPCR) in RA FLS. Conditions: IL-1β 10 ng/ml 48 hours, 10 μM, n=6 RA. Type of assay: cell-based, human. The method, then: The qPCR conditions used have been previously described (Laragione et al., “Cia5d Regulates a New Fibroblast-Like Synoviocyte Invasion-Associated Gene Expression Signature,” Arthritis Res. Ther. 10 (4):R92 (2008), which is hereby incorporated by reference in its entirety). Briefly, total RNA (200 ng) from each sample was reverse transcribed using Superscript III (Invitrogen). MMP-2 (forward-[…] (SEQ ID NO: 1); reverse-GGTATCCATCGCCATGCT (SEQ ID NO: 2) and MMP-3 (forward-CCAGGTGTGGAGTTCCTGA (SEQ ID NO: 3); reverse-[…] (SEQ ID NO: 4)) primers were designed based on the Universal ProbeLibrary (Roche, Indianapolis, Ind.). Reactions were prepared with Absolute Blue qPCR Mix (Thermo Fisher, Waltham, Mass.), and run in duplicate on a LightCycler 480 thermocycler (Roche) using Relative Quantitative Software (Roche). Ct (threshold cycle) values were adjusted for GAPDH in each sample (ΔCt). Fold differences were calculated with the 2^−ΔΔCt method (Livak et al., “Analysis of Relative Gene Expression Data Using Real-Time Quantitative PCR and the 2(-Delta Delta C(T)) Method,” Methods 25 (4):402-408 (2001), which is hereby incorporated by reference in its entirety).
In general terms: Quantitative PCR measures a nucleic acid by following its amplification.

In another assay the target is T1, Trpv2 (Rattus norvegicus, UniProt Q9WUD2).
T1 sequence (Q9WUD2 1-761): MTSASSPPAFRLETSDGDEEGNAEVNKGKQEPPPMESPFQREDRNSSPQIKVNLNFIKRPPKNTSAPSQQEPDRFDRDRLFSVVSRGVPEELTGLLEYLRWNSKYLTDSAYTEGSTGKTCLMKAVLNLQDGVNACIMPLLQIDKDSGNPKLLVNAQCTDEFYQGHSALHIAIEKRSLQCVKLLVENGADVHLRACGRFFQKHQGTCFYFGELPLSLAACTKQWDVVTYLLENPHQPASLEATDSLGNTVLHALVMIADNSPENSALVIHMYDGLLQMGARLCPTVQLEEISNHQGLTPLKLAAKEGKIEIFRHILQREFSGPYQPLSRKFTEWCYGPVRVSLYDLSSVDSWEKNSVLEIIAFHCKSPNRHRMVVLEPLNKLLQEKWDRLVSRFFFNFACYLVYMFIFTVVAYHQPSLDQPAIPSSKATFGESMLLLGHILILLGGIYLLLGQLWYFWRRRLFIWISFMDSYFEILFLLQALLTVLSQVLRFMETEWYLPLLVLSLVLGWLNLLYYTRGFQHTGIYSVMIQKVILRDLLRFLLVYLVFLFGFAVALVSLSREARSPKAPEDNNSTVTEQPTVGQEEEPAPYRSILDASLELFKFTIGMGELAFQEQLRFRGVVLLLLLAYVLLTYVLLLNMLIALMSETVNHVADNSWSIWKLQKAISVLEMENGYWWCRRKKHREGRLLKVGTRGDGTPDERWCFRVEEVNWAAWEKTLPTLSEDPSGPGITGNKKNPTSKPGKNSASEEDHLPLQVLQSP
The experiment in a line: Single cell patch clamp of DA FLS. Type of assay: cell-based. More on the design: endogenous in cells; host or cells: FLS from DA rats with pristane-induced arthritis. Conditions: perfusion with 30 μM. The method, then: FLS obtained from DA rats with PIA were plated in culture medium onto glass coverslips and allowed to adhere at 37° C. Recordings were performed in the whole-cell configuration of the patch-clamp technique at room temperature using an EPC10-USB amplifier (HEKA instruments, Bellmore, N.Y.). […] The bath solution contained 132 mM NaCl, 5.4 mM KCl, 1.8 mM CaCl2, 0.8 mM MgCl2, 10 mM HEPES, and 10 mM glucose, at pH 7.4. O1821-activated currents were elicited with a 600 ms ramp from −100 to +100 mV from a holding potential of −107 mV. Addition of O1821 was accomplished by complete bath exchange.

For assay [1], the system named is C57BL/6 mice with KRN serum transfer-induced arthritis. Description: KRN serum transfer induced arthritis (clinical scores and histology). Type of assay: in vivo, mouse. The method, then:
Seven to eight week-old C57BL/6 male mice (Jackson Laboratories) received 200 μl of KRN arthritogenic serum (Ji et al, “Genetic Influences on the End-Stage Effector Phase of Arthritis,” J. Exp. Med. 194 (3):321-330 (2001), which is hereby incorporated by reference in its entirety) (KBN TCR transgenic mice were a kind gift from Christophe Benoist and have been intercrossed with NOD at the Feinstein Institute to generate KRN mice and the arthritogenic serum) intraperitoneal (IP) on day zero (D0) and day 2 (D2). After the onset of clear ankle arthritis (day 3; D3), mice were started on O1821 10 mg/Kg IP BID or control vehicle (DMSO in saline solution). Arthritis severity was scored according to the system reported by Jirholt et al., “Genetic Linkage Analysis of Collagen-Induced Arthritis in the Mouse,” Eur. J. Immunol. 28 (10):3321-3328 (1998), which is hereby incorporated by reference in its entirety, which includes a number of involved joints and a degree of inflammation (swelling/redness) in a scale of 0-12 per mouse per day.
[…] Histology slides were scored without knowledge of treatment and according to a comprehensive scoring system previously reported that includes parameters for synovial hyperplasia, inflammatory cell infiltration, and bone and cartilage erosions (Brenner et al., “The Non-MHC Quantitative Trait Locus Cia10 Contains a Major Arthritis Gene and Regulates Disease Severity, Pannus Formation and Joint Damage,” Arthritis Rheum. 52 (1):322-332 (2005), which is hereby incorporated by reference in its entirety).

For assay [2], the system named is cervix carcinoma cell line. Description: Cancer cell invasion, cervix carcinoma. Type of assay: cell-based.
For another assay, the system named is phosphorylated Erk1/2. The experiment in a line: FLS levels of phosphorylated Erk1/2. Type of assay: cell-based.

`C=C(C)[C@@H]1CCC(C)=C[C@H]1c1c(O)cc(C)cc1O` [Compound O1821]: the “Decrease of IL-1β-induced MMP-2 expression” value in the assay with MMP-2 was 45.6% and 50%. Also, at Trpv2, the Trpv2 channel current result is “induced channel opening”. The Arthritis severity scores entry in assay [1] (10 mg/Kg BID IP from day 3 to day 9) was “reductions in arthritis severity scores”. Further, in assay [1] (10 mg/Kg IP BID from day 3), the “Arthritis severity index (ASI), mean±S.D.” value amounted to 38.8±6.3 and the “Lower arthritis severity index (ASI) vs vehicle” value stood at 30%. For the same compound, in assay [1] (ankles at D10, blinded scoring), the “Histologic parameters (angiogenesis, inflammatory infiltration, pannus formation, loss of proteoglycan)” value is recorded as “reduced several histologic parameters”. Besides, in assay [1] (histology, vs control vehicle), the Angiogenesis result is “marked reduction”, the Synovial pannus formation entry was “reduced” and the “Synovial tissue inflammatory infiltration” value was “reduced”. In addition, in assay [2], the Cell invasion result is recorded as “significantly reduce cell invasion”. Further, the “Levels of phosphorylated Erk1/2” value with phosphorylated Erk1/2 is recorded as “did not affect”.

The values are drawn from US20200277246A1, “TREATMENT METHOD, COMPOUNDS, AND METHOD OF INCREASING TRPV2 ACTIVITY” (THE FEINSTEIN INSTITUTE FOR MEDICAL RESEARCH, priority 2015, published 2020).
